The values that follow come from US5270311A, “[1,2,4]-Triazolo[1,5-a]and pyrazolo[2,3-a][1,3,5]triazine derivatives” (Imperial Chemical Industries PLC, priority 1990, dated 1993).

Data set [1] deals with vasodilatation response during twitch contraction of skeletal muscle. In words: Anaesthetised cat exercise hyperaemia test. The class given is in vivo. The conditions noted are these: Felis catus, iv, 20 min, hind limb contraction at 3 Hz for 20 minutes, read-out: dose producing significant inhibition of vasodilatation during exercise. The protocol:
(f) Anaesthetised cat exercise hyperaemia test
This test involves assessment of the effect of a test compound to antagonise the vasodilatation response which occurs during twitch contraction of skeletal muscle. The vasodilation is mediated partly by the release of endogenous adenosine from the contracting skeletal muscle.
Cats (2.4-3.6 kg) are anaesthetised with sodium pentobarbitone (50 mg.kg^-1 ip). The following blood vessels are catheterized: left jugular vein (for infusion of anaesthetic, at approximately […] as a 6 mg.ml^-1 solution in isotonic saline), right external jugular vein (for administration of drugs and test compounds), right common carotid artery (for measurement of systemic arterial blood pressure and pulse rate) and right brachial artery (for withdrawal of blood).
Blood flow to the left hind limb is measured with an electromagnetic flow probe around the left external iliac artery. The whole of the left hind limb is made to contract at 3 Hz for 20 minutes duration by stimulating the sciatic and femoral nerves. Active tension produced by the extensor digitorum longus and peroneous longus muscles is measured isometrically with a force transducer. […] Test compounds are assessed for their ability to reduce the vasodilatation during skeletal muscle contraction. […]

The subject of data set [2] is actions of adenosine in lowering heart rate and increasing vasodilation (hind-limb perfusion pressure). The data set is described as follows: Anaesthetised dog Test. The conditions noted are these: Schild plot, antagonism of vasodilator response to adenosine. The class given is in vivo. The protocol: (e) Anaesthetised dog Test
This test involves the assessment of the effects of a test compound on antagonising the actions of adenosine in lowering heart rate and increasing vasodilation (as measured by a fall in hind-limb perfusion pressure).
Beagles (12-18 kg) are anaesthetised with sodium pentobarbitone (50 mg/kg, iv). […] Both vagi, the right femoral and sciatic nerves are ligated and severed. […] The right leg is tied just below the ankle. Xamoterol (1 mg/kg) is then administered to the animal to stabilise heart rate at a high level and nitrobenzylthioinosine (NBTI, 0.5 mg/kg) to inhibit the uptake of adenosine. The animal is sensitised to adenosine during the equilibration time following NBTI by carrying out a dose response curve (DRC). During this time any blood gas or pH imbalance is corrected. A control DRC is performed followed-d by up to three DRC's after cumulative administration of the test compound (as described in (d) above). […] Similarly, blood gases and pH are maintained within physiological limits throughout the evaluation.
From this plot a KB value is determined for antagonism of heart rate response and vasodilator response to adenosine.

In data set [3] the test system is adenosine induced decrease in blood pressure. In words: Conscious cat oral modification of Test (d). Format: in vivo. The conditions noted are these: conscious cats, at several times the minimum effective dose. The text has this:
The above Test (d) may conveniently be modified to allow evaluation of orally administered test compounds by administering the test compound to conscious cats with indwelling arterial and venous catheters and measuring the effect in preventing an adenosine induced decrease in blood pressure.

Data set [4] concerns the target T1, adenosine receptor known as A2.
T1 construct: guinea pig thoracic aorta (from Dunkin Hartley strain, 250-400 g males); from tissue; host or cells: thoracic aortic rings, Dunkin Hartley guinea pig
In words: Guinea-pig Aortic Constriction Test. The note with it: antagonism of adenosine relaxation of phenylephrine constricted guinea-pig aortic ring; read-out: pA2 (converted).
Description: (b) Guinea-pig Aortic Constriction Test
The aortic ring preparation is obtained as follows: Sections (3-5 mm) of guinea pig thoracic aorta (from Dunkin Hartley strain, 250-400 g males) are mounted in organ baths containing oxygenated Krebs solution (95% O2 : 5% CO2) at 37° C. [The nucleoside transport inhibitor, dipyridamole (10 μM) is present in the Krebs solution]. The isometric tension development is recorded and the tissue placed under a resting tension of 1 g and allowed to equilibrate for 1 hour. The aortic ring preparation is then sensitised to 10^-5 M phenylephrine. Erythro-9-(2-hydroxy-3-nonyl)adenine (EHNA) (10 μM) is added to the preparation and after 10 minutes the tissue is constricted to approximately 50% maximum by adding 3×10^-6 M phenylephrine. Adenosine is next added cumulatively (10^-7 M to 10^-3 M) and the evoked relaxation is measured. After washout for 20 minutes, a 10^5 M solution of the test compound in DMSO (maximum 1% by volume) diluted with Krebs solution is added and left to equilibrate for 30 minutes. Twenty minutes into the equilibration period further EHNA (10 μM) is added to the preparation and 10 minutes later phenylephrine (3×10^-6 M) is introduced to produce constrictive tone again. A repeat dose response curve to adenosine is then carried out followed by washout.
Significant antagonist activity in this assay is indicated by a DR of >2.

In data set [5] the target is T2, A2 Adenosine receptor (Rattus norvegicus, UniProt P30543).
T2 construct: membrane preparations derived from the rat phaeochromocytoma cell line PC 12; endogenous in cells; host or cells: PC 12 (rat phaeochromocytoma; cell line available from the Beatson Institute, Glasgow)
T2 sequence (P30543 whole entry): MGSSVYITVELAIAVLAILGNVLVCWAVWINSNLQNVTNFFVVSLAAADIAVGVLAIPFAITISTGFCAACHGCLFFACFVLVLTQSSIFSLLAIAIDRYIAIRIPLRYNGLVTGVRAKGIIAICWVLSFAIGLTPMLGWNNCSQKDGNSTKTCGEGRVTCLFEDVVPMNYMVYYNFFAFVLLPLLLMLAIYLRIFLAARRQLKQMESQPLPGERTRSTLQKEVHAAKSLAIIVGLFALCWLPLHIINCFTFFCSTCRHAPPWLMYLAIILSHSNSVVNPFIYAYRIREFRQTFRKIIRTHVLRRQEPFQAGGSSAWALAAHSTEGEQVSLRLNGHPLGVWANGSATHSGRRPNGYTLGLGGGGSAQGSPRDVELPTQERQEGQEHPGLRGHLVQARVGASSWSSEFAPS
In words: A2 Adenosine receptor affinity test ([3H]-NECA displacement, PC12 membranes). Format: binding. As for the experimental part: The separated cells are then suspended in hypotonic solution (distilled water), allowed to stand on ice for 30 minutes and are then carefully homogenized using a standard high-speed homogeniser with periodic ice-cooling to obtain a fine suspension. […] A1280). […] After 20 minutes, the reaction is terminated by dilution with ice-cold buffer and transfer onto ice. The material obtained containing the cell membranes is recovered by centrifugation and washed by resuspension in buffer and recentrifugation. The pellet produced is then resuspended in ice-cold buffer using a hand-driven homogenizer. The resultant membrane suspension is frozen and stored under liquid nitrogen until required. […] After incubation, the samples are rapidly filtered over glass-fibre mats and the filter mats are washed to remove non-receptor-bound radioligand. Receptor-bound radioligand entrapped on the filter mats is then determined by liquid scintillation counting. Filtration and washing are carried out using a conventional vacuum filtration cell harvester. The specific binding (defined as the difference between the total binding and the non-specific binding) in the presence of the particular test compound is determined and compared with the control value.

Data set [6] concerns the target T3, adenosine receptor known as A1 (Cavia porcellus, UniProt P47745).
T3 construct: Atrial pairs are obtained from guinea-pigs (Dunkin Hartley strain, 250-400 g males); from tissue; host or cells: spontaneously beating atrial pairs, Dunkin Hartley guinea pig
T3 sequence (P47745 1-326): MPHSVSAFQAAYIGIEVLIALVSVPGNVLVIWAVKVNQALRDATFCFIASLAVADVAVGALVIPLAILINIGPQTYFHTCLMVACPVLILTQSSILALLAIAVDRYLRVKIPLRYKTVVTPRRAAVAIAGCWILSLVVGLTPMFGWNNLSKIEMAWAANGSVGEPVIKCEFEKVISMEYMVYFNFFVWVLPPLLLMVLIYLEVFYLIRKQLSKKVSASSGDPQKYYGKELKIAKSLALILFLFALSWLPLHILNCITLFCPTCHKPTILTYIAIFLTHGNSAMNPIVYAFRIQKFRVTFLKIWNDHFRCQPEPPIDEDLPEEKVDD
The data set is described as follows: Guinea-pig Atrial Bradycardic Test. The note with it: antagonism of bradycardic effect of 2-chloroadenosine, beating guinea-pig atrial pair; read-out: pA2 (converted). The protocol: (c) Guinea-pig Atrial Bradycardic Test
The atrial pair preparation may be obtained as follows: Atrial pairs are obtained from guinea-pigs (Dunkin Hartley strain, 250-400 g males) and mounted in organ baths containing oxygenated Krebs buffer solution (95% O2; 5% CO2) at 37° C. The spontaneously beating atria are then placed under a resting tension of 1 g and allowed to equilibrate for 50 minutes with continuous overflow. Overflow is then stopped and adenosine deaminase (1 Unit/ml) added to prevent the accumulation of endogenously produced adenosine. After equilibration for 15 minutes, a cumulative dose response curve to the adenosine mimetic, 2-chloroadenosine(10^-8 M to 10^-4 M) is administered to produce a maximal slowing of atrial rate. After washout during 30 minutes, adenosine deaminase is readministered to the bath which is allowed to equilibrate for 15 minutes. A 10^-5 M solution of the test compound in DMSO is then added to the bath which is left to incubate for 30 minutes. Any effect on the beating rate due to the test compound is noted before the dose response curve to 2-chloroadenosine is repeated. Compounds which are adenosine antagonists attenuate the 2-chloroadenosine response.
Test compounds are assessed by comparing dose response curves to 2-chloroadenosine alone with those obtained in the presence of the compound. […]

The subject of data set [7] is fall in diastolic blood pressure produced by 2-chloroadenosine. The data set is described as follows: Anaesthetised cat blood pressure Test. The class given is in vivo. The note with it: i.v., Schild plot, 2-chloroadenosine 30 mm Hg fall in diastolic blood pressure. The protocol: (d) Anaesthetised cat blood pressure Test This test assesses the ability of a test compound to antagonise the fall in diastolic blood pressure produced by administration of the adenosine mimetic, 2-chloroadenosine. […] The blood gas status and pH are determined, and are maintained within physiological limits, before administration of 2-chloroadenosine. […] A solution of the test compound in a mixture of 50% v/v polyethylene glycol (PEG) 400 and 0.1M sodium hydroxide is then administered i.v. and after 15 minutes the DRC to 2-chloroadenosine is determined. This procedure is repeated twice with blood gases and pH being monitored and maintained within physiological limits between each DRC. […] From this plot a KB value is determined.

Read-outs that look alike come from different tables or passages of the source.

T1 sequence (P29275 whole entry): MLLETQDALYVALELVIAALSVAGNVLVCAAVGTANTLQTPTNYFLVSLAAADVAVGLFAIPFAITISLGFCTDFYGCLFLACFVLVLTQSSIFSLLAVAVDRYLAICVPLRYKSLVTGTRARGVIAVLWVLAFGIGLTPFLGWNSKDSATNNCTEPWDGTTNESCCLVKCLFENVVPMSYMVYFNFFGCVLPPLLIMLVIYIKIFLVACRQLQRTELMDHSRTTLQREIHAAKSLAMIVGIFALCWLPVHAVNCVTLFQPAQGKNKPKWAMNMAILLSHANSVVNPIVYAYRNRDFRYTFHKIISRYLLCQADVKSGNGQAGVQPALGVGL

On to `Cn1c(=O)c2[nH]cnc2n(C)c1=O` [1,3-dimethylxanthine, reference compound], for which the minimal effective dose in data set [1] was determined as 10 mg/kg.

On to `Nc1nc(Oc2ccccc2)nc2nc(-c3ccco3)nn12` [Example 1, 7-amino-2-(2-furyl)-5-phenoxy-[1,2,4]triazolo[1,5-a][1,3,5]triazine], for which the KB in data set [2] and in data set [7] was 30 µg/kg throughout. The minimal effective dose in data set [1] lay in the range of 0.1 to 1 mg/kg. For the same compound, the “sign of overt toxicity” value in data set [3] is given as “without any sign of overt toxicity”. The Kb in data set [4] is 39.8 nM; in data set [6], 631 nM. Moreover, the IC50 (usually the concentration that gives 50% inhibition) in data set [5] was around 10 nM.

As for `Nc1nc(Oc2ccccc2)nc2cc(-c3ccco3)nn12` [Example 119, 7-amino-2-(2-furyl)-5-phenoxy-pyrazolo[2,3-a][1,3,5]triazine], the results for the KB in data set [2] and in data set [7] were 1100 µg/kg and 700 µg/kg, respectively. For the same compound, the figures for the Kb in data set [4] and in data set [6] were 50.1 nM and 1000 nM, respectively. This compound also gave an IC50 in data set [5] (displacement of [3H]-NECA, rat PC 12 cell membranes, 30° C., 90 minutes) of around 3.16 nM.
